Laboratory results reported in ChEMBL document CHEMBL1201862, “PubChem BioAssay data set” (2004).
Calls of active or inactive are those of the source.

Experiments:
[1] = system: A-375; experiment: MITF: Counter assay: A375 proliferation Measured in Cell-Based System Using Plate Reader - 2084-03_Inhibitor_Dose_DryPowder_Activity. [Related pubchem assays (depositor defined):AID488944]; type: functional; conditions: Homo sapiens
[2] = target: T1, Microphthalmia-associated transcription factor (Homo sapiens, UniProt O75030); experiment: reducers of TRPM1 reporter luminescence, concentration series – cell-based, SK-MEL-5, cherry-picked, set 3, MITF inhibitor project, dose response (AID 493073); type: functional;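 also: SK-MEL-5 melanoma cells with luciferase driven by the MITF target TRPM1 promoter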
T1 sequence (O75030 whole entry): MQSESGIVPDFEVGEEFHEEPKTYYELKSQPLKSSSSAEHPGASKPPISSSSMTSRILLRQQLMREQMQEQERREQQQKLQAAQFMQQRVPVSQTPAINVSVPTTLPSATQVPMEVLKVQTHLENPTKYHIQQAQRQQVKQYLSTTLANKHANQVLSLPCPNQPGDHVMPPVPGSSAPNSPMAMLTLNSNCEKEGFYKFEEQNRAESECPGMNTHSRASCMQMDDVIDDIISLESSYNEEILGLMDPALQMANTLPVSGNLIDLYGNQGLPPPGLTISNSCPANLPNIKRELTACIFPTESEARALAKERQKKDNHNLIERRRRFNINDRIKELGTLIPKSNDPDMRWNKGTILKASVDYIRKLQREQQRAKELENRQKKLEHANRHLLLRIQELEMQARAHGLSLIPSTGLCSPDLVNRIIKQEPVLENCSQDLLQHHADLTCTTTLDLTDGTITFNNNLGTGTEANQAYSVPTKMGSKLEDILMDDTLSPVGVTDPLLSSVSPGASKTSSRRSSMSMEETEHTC

[3] = target: T2, Cannabinoid receptor 1 (Homo sapiens, UniProt P21554); experiment: SAR analysis of agonists of the Cannabinoid Receptor 1 using an Image-Based Assay - Set 2. [Related pubchem assays (depositor defined):AID2013, AID2026]; type: functional
[4] = target: T2, Cannabinoid receptor 1; experiment: SAR analysis of antagonists of the Cannabinoid Receptor 1 using an Image-Based Assay - Set 2. [Related pubchem assays (depositor defined):AID2013, AID2026]; type: functional
[5] = target: T3, G-protein coupled receptor 35 (Homo sapiens, UniProt Q9HC97); experiment: SAR analysis of Agonists of the GPR35 Receptor using an Image-Based Assay - Set 2. [Related pubchem assays (depositor defined):AID2013, AID2026]; type: functional
[6] = target: T4, Cannabinoid receptor 2 (Homo sapiens, UniProt P34972); experiment: SAR analysis of agonists of the Cannabinoid Receptor 2 using an Image-Based Assay. [Related pubchem assays (depositor defined):AID2013, AID2026]; type: functional
[7] = target: T3, G-protein coupled receptor 35; experiment: SAR analysis of Antagonists of the GPR35 Receptor using an Image-Based Assay - Set 3. [Related pubchem assays (depositor defined):AID2013, AID2026]; type: functional
[8] = target: T5, G-protein coupled receptor 55 (Homo sapiens, UniProt Q9Y2T6); experiment: blockade of LPI-induced GPR55 arrestin translocation – imaging, U2OS, beta-arrestin-GFP, LPI agonist, set 2, SAR follow-up (AID 2820); type: functional
[9] = target: T5, G-protein coupled receptor 55; experiment: inhibition of LPI-stimulated GPR55 beta-arrestin translocation – imaging, U2OS, beta-arrestin-GFP, LPI agonist, primary screen (AID 2013); type: functional;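 also: antagonist potency measured as reduced agonist-driven arrestin aggregation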
[10] = target: T4, Cannabinoid receptor 2; experiment: SAR analysis of antagonists of the Cannabinoid Receptor 2 using an Image-Based Assay. [Related pubchem assays (depositor defined):AID2013, AID2026]; type: functional
[11] = target: Peroxisome proliferator-activated receptor gamma/Nuclear receptor coactivator 2 (Homo sapiens, UniProt P37231); experiment: TR-FRET dose response biochemical High Throughput Screening assay for agonists of the steroid receptor coactivator 2 (SRC-2) recruitment by the peroxisome proliferator-activated receptor gamma (PPAR gamma): non-selective agonists. [Related pubchem assays: 1297, 1032 ]; type: functional
[12] = target: Peroxisome proliferator-activated receptor gamma/Nuclear receptor coactivator 3 (Homo sapiens, UniProt P37231); experiment: TR-FRET dose response biochemical High Throughput Screening assay for agonists of the steroid receptor coactivator 3 (SRC-3) recruitment by the peroxisome proliferator-activated receptor gamma (PPAR gamma): non-selective agonists. [Related pubchem assays: 1301 (Confirmation screen.), 1048 (Primary screen.)]; type: functional
[13] = target: Peroxisome proliferator-activated receptor gamma/Nuclear receptor coactivator 1 (Homo sapiens, UniProt P37231); experiment: TR-FRET dose response biochemical High Throughput Screening assay for agonists of the steroid receptor coactivator 1 (SRC-1) recruitment by the peroxisome proliferator-activated receptor gamma (PPAR gamma): non-selective agonists. [Related pubchem assays (depositor defined):AID1300, AID1808, AID504735, AID631]; type: protein assay
[14] = target: Intestinal-type alkaline phosphatase (Mus musculus, UniProt P24822); experiment: PubChem AID 488785; type: functional
[15] = target: T6, Alkaline phosphatase, tissue-nonspecific isozyme (Homo sapiens, UniProt P05186); experiment: TNAP enzyme inhibition by screening hits, dose response, selectivity assay for mouse IAP inhibitor project, biochemical, human TNAP, uHTS hits (AID 488906); type: functional
T6 sequence (P05186 whole entry): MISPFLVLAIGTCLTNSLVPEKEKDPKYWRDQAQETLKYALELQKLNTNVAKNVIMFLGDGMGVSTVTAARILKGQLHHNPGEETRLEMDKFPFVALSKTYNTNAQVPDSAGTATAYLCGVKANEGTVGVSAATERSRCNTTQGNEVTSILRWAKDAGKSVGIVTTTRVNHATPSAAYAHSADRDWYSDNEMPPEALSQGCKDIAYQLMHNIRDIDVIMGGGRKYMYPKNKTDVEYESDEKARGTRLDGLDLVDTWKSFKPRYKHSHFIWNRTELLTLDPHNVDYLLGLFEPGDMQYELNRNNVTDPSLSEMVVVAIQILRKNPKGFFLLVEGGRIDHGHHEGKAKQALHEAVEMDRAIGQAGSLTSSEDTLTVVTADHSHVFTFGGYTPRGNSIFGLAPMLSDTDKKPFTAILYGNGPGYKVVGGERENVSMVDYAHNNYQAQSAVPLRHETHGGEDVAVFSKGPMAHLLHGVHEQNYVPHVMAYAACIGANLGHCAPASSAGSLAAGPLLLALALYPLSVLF

[16] = target: Hepatocyte nuclear factor 4-alpha (Homo sapiens, UniProt P41235); type: functional, cell-based;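 also: biochemical luminescence-based dose-response counterscreen measuring inhibition of HNF4 dimerization, run alongside a screen for blockers of ABHD5–perilipin-5 interaction; split luciferase complementation of HNF4 fusion proteins in cell lysate measuring dimerization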
[17] = target: T7, Zinc finger protein mex-5 (Caenorhabditis elegans, UniProt Q9XUB2); experiment: potency of MEX-5 RNA-binding blockers – biochemical, C. elegans, fluorescence polarization, dose response (AID 1960)
T7 sequence (Q9XUB2 whole entry): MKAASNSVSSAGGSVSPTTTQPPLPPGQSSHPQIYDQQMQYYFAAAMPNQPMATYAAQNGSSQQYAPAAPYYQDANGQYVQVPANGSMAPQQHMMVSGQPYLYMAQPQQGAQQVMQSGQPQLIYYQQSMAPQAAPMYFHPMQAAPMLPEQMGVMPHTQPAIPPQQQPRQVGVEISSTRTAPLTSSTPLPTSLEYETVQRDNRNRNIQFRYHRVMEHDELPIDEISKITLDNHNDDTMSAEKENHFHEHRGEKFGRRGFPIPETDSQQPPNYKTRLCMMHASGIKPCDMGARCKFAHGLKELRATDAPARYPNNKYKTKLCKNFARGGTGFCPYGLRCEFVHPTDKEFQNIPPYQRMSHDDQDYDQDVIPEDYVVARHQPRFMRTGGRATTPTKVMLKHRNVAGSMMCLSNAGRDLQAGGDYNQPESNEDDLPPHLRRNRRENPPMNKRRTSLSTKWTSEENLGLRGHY

[18] = target: T8, RNA-binding protein pos-1 (Caenorhabditis elegans, UniProt G5EF15); experiment: disruptors of C. elegans POS-1 RNA interaction – biochemical, fluorescence polarization, dose response (AID 1964);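 also: purified POS-1 fused to maltose binding protein made in E. coli; potency of compounds blocking POS-1 binding to fluorescent RNA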
T8 sequence (G5EF15 whole entry): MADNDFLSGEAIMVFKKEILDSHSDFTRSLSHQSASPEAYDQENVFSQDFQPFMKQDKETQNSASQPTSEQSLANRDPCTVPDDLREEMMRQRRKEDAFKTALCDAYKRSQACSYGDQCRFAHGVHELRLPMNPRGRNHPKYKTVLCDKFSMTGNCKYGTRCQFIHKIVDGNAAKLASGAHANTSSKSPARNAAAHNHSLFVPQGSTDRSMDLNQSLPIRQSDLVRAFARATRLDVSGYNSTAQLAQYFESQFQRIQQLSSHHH

[19] = target: T9, Intestinal-type alkaline phosphatase (Homo sapiens, UniProt P09923); experiment: inhibition of human intestinal alkaline phosphatase – biochemical, dose response (AID 488876); type: functional
[20] = target: Large T antigen (Simian virus 40, UniProt P03070); type: functional, Betapolyomavirus macacae;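 also: Confirmatory-stage PubChem screen for compounds that inhibit SV40 T antigen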
[21] = target: T9, Intestinal-type alkaline phosphatase; experiment: human intestinal alkaline phosphatase activators, dose response, biochemical, luminescence, uHTS hits (AID 463120); type: functional
[22] = target: Cytochrome P450 2D6 (Homo sapiens, UniProt P10635);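 also: CYP2D6 member of a cytochrome P450 panel assay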
[23] = target: T10, Cytochrome P450 1A2 (Homo sapiens, UniProt P05177);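 also: PubChem cytochrome P450 panel assay, CYP1A2 panel member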
T10 sequence (P05177 whole entry): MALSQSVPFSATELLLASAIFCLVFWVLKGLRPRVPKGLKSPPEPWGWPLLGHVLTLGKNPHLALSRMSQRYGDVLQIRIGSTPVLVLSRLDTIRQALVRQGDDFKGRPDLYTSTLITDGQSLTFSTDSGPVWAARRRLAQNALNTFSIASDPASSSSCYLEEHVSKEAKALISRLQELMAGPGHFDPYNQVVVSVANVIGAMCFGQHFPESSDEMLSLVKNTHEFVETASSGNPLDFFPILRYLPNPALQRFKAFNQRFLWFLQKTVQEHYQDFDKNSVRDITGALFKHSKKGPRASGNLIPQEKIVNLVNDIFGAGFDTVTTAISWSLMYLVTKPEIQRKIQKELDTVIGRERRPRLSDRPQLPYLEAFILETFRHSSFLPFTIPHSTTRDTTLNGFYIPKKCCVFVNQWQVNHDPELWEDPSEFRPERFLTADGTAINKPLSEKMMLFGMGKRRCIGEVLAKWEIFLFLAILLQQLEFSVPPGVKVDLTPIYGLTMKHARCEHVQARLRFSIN

[24] = target: Cytochrome P450 2C19 (Homo sapiens, UniProt P33261); experiment: Cytochrome panel assay with activity outcomes. Panel member name: p450-cyp2c19 Compounds with AC50 equal or less than 10 uM are considered active; type: functional
[25] = target: T4, Cannabinoid receptor 2; experiment: SAR analysis of agonists of the Cannabinoid Receptor 2 using an Image-Based Assay - Set 3. [Related pubchem assays (depositor defined):AID2013, AID2026]; type: functional
[26] = target: T3, G-protein coupled receptor 35; experiment: SAR analysis of Agonists of the GPR35 Receptor using an Image-Based Assay - Set 4. [Related pubchem assays (depositor defined):AID2013, AID2026]; type: functional
[27] = target: T4, Cannabinoid receptor 2; experiment: SAR analysis of antagonists of the Cannabinoid Receptor 2 using an Image-Based Assay - Set 3. [Related pubchem assays (depositor defined):AID2013, AID2026]; type: functional
[28] = target: T5, G-protein coupled receptor 55; experiment: SAR Analysis of Selective Antagonists of GPR55 using an Image-Based Assay - Set 4. [Related pubchem assays (depositor defined):AID2013, AID2026]; type: functional
[29] = target: T2, Cannabinoid receptor 1; experiment: SAR analysis of antagonists of the Cannabinoid Receptor 1 using an Image-Based Assay - Set 4. [Related pubchem assays (depositor defined):AID2013, AID2026]; type: functional
[30] = target: T2, Cannabinoid receptor 1; experiment: SAR analysis of agonists of the Cannabinoid Receptor 1 using an Image-Based Assay - Set 4. [Related pubchem assays (depositor defined):AID2013, AID2026]; type: functional
[31] = target: T3, G-protein coupled receptor 35; experiment: SAR analysis of Antagonists of the GPR35 Receptor using an Image-Based Assay - Set 6. [Related pubchem assays (depositor defined):AID2013, AID2026]; type: functional
[32] = target: Voltage-dependent T-type calcium channel subunit alpha-1H (Homo sapiens, UniProt O95180); experiment: human CACNA1H calcium influx blockade – cell-based, synthetic library set 2, HEK293 HH8, Fluo-4, SAR follow-up (AID 493023); type: functional
[33] = cells; type: functional
[34] = Vero E6 cell cytotoxicity, dose response, cytotoxicity control for non-replicating M. tuberculosis project, secondary assay (AID 492998); type: functional, VeroE6; conditions: Vero C1008
[35] = THP-1 cell cytotoxicity, dose response, cytotoxicity control for non-replicating M. tuberculosis project (AID 489025); type: functional

T4 sequence (P34972 whole entry): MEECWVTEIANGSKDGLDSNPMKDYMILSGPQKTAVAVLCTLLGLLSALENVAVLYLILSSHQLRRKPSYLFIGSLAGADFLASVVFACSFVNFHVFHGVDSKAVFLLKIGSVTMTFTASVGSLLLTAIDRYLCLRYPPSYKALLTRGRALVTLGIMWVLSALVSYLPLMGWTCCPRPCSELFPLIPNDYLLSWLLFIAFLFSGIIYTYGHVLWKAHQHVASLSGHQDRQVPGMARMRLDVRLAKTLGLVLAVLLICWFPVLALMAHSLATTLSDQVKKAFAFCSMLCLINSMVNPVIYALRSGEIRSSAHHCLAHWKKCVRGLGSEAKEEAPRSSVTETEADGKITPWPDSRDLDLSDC
T2 sequence (P21554 whole entry): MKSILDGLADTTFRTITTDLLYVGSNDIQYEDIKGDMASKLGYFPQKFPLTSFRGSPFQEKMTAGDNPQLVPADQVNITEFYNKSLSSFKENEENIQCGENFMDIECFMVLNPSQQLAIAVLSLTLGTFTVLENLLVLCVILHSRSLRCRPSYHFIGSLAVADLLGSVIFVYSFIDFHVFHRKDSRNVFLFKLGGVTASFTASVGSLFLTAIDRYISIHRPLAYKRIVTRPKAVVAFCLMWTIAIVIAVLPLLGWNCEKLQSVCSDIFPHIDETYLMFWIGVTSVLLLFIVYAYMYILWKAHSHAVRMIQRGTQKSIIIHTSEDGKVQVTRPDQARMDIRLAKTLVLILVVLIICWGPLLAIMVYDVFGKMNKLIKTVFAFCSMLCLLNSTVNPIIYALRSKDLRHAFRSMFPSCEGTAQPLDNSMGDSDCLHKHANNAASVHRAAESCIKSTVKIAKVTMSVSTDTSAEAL
T5 sequence (Q9Y2T6 whole entry): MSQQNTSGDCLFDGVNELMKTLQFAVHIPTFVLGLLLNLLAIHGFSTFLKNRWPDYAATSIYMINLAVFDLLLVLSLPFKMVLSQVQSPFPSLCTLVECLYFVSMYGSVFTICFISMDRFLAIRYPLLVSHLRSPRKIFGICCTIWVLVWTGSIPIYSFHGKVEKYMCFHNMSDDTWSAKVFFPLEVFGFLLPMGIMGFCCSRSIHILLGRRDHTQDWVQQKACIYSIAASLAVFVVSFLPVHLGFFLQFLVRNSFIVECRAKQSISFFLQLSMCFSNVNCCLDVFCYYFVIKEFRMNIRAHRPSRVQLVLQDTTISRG
T3 sequence (Q9HC97 whole entry): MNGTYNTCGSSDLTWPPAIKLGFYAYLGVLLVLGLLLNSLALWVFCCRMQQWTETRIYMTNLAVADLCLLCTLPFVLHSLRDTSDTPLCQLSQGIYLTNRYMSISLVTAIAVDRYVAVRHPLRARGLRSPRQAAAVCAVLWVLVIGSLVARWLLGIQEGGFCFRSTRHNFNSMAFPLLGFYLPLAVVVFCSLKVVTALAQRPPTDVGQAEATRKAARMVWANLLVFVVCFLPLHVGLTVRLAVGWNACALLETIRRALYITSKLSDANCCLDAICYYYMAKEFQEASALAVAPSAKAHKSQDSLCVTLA
T9 sequence (P09923 whole entry): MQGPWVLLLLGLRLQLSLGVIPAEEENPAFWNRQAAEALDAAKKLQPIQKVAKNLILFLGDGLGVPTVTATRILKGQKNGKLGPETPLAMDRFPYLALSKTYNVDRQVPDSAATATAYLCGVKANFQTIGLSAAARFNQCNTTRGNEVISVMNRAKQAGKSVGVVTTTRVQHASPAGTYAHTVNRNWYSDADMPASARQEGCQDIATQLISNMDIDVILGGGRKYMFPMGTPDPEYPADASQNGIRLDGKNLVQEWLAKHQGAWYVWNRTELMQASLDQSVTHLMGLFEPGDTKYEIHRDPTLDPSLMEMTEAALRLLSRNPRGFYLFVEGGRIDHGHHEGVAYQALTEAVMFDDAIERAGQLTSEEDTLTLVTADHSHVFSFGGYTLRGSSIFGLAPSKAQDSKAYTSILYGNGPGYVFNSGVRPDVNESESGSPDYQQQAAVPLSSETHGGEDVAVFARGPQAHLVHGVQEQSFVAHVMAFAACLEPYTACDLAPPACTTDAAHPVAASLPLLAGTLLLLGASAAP
Chain of Intestinal-type alkaline phosphatase (Mus musculus, UniProt P24822) (P24822 whole entry): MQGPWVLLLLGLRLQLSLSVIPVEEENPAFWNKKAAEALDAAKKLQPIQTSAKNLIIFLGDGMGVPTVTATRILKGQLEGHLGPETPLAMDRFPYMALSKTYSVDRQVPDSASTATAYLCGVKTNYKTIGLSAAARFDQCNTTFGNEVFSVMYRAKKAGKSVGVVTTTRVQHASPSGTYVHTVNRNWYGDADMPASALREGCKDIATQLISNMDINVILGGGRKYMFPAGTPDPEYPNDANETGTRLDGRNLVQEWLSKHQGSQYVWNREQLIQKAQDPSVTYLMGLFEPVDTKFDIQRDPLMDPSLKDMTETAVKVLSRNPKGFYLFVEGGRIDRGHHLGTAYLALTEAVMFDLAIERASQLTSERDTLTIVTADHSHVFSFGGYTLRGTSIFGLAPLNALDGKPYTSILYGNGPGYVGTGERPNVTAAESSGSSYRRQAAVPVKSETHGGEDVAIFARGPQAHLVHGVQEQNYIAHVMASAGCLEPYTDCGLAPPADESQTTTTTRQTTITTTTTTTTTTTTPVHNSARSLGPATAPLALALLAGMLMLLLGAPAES
Chain of Large T antigen (P03070 whole entry): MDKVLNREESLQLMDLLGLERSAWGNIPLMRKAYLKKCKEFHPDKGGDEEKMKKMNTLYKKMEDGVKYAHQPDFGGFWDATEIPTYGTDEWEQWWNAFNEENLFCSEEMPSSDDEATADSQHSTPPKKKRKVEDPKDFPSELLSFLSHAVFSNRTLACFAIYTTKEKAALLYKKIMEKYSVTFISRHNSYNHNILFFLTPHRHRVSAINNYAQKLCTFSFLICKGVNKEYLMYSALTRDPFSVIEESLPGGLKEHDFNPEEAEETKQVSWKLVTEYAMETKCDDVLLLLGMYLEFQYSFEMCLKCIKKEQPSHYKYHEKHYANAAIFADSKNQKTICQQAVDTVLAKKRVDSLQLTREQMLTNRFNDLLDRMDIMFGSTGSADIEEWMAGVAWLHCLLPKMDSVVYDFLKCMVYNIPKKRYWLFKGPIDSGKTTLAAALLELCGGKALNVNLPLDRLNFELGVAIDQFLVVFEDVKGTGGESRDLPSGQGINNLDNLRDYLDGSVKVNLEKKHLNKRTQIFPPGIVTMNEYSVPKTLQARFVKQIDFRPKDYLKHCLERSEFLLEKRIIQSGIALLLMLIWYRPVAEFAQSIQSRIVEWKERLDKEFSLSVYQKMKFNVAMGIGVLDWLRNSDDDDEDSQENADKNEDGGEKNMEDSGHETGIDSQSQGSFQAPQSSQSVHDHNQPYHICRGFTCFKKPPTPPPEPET
Chain of Hepatocyte nuclear factor 4-alpha (P41235 whole entry, the tested form may be a part): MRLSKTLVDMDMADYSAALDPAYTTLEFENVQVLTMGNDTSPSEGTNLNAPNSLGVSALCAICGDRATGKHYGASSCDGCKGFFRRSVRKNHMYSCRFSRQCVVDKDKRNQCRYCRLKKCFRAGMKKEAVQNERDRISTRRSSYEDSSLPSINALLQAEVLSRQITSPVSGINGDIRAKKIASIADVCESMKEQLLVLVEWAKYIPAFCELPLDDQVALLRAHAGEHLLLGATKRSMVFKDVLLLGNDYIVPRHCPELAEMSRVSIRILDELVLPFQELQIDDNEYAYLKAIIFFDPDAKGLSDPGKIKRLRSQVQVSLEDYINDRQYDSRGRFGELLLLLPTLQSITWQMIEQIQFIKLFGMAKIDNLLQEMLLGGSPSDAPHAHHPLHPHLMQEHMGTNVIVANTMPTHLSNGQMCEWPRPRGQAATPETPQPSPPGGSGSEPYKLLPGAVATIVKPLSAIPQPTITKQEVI
Chain of Cytochrome P450 2D6 (P10635 whole entry): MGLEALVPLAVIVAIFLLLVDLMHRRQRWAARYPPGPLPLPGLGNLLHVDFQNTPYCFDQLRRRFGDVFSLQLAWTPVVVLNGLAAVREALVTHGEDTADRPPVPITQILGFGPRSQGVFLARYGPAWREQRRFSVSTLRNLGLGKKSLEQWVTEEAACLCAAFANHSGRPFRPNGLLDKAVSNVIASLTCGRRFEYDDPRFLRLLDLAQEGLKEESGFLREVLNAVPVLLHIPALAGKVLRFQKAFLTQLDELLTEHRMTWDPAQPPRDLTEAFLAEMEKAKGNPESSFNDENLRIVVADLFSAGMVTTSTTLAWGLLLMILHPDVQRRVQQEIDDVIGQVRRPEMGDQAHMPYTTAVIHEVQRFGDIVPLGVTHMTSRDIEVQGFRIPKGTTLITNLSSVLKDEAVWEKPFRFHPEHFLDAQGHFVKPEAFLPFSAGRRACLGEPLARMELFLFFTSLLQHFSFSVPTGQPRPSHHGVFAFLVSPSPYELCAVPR
Chain of Cytochrome P450 2C19 (P33261 whole entry): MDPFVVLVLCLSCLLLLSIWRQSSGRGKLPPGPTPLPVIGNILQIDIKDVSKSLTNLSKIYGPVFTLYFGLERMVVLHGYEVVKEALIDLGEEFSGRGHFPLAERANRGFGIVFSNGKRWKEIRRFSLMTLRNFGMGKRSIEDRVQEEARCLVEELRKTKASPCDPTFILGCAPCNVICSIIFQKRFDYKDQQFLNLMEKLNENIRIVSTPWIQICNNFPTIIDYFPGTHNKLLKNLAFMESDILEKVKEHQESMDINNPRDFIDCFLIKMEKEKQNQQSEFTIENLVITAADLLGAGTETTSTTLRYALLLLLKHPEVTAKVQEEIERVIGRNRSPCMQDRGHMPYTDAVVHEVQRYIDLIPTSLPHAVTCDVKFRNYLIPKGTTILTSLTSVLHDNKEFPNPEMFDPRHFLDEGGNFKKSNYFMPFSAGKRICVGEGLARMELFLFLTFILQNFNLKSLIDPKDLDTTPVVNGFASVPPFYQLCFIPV

COc1ccc(CNCCC(c2ccc(F)cc2)c2ccc(OC)cc2)cc1 (stereo not given)
AC50 [1]: 16.3 µM (active) | AC50 [2]: 9.89 µM (active) | EC50 [3]: > 32 µM (inactive) | IC50 [4]: 2.7 µM (active) | EC50 [5]: 23.1 µM (inactive) | EC50 [6]: > 32 µM (inactive) | IC50 [7]: > 32 µM (inactive) | IC50 [8]: 1.69 µM (active) | IC50 [9]: 1.78 µM (active) | IC50 [10]: 24.2 µM (inactive)

COc1ccc2c(c1)nc(SCC(=O)c1ccc(Br)s1)n2C
EC50 [11]: 27.7 µM (not active) | EC50 [12]: > 79.4 µM (not active) | EC50 [13]: > 79.4 µM (inactive)

CN1C(=O)/C(=C/C=C/c2ccco2)C(=O)NC1=S
IC50 [14]: 11.8 µM (active) | IC50 [15]: 23.5 µM (active) | IC50 [16]: 2.56 µM (active) | EC50 [17]: 37.5 µM (active) | EC50 [18]: 33.5 µM (active) | IC50 [19]: 9.58 µM (active) | IC50 [20]: 11.9 µM (active)

COc1ccc(C(=O)Nc2cccc3c2C(=O)NC3=O)cc1S(=O)(=O)N1CCOCC1
EC50 [21]: > 100 µM (inactive) | AC50 [22]: inconclusive | AC50 [23]: 1 µM (inconclusive) | AC50 [24]: inconclusive

Cc1ccc(-c2nnc(C)c3nn(-c4ccc(C)cc4)cc23)cc1
EC50 [25]: > 32 µM (inactive) | EC50 [26]: > 32 µM (inactive) | IC50 [27]: > 18 µM (inactive) | IC50 [28]: > 32 µM (inactive) | IC50 [29]: 2.59 µM (active) | EC50 [30]: > 32 µM (inactive) | IC50 [31]: 15.4 µM (inactive)

CC(C)(C)CCN1CCC[C@@H](NC(=O)c2cc(Cl)cc(Cl)c2)C1
EC50 [32]: 10 µM (active)

O=C(N/N=C\c1ccc(Cl)s1)C1COc2ccccc2O1 (stereo not given)
IC50 [33]: 5.63 µM (active) | CC50 [34]: 19.4 µM (active) | CC50 [35]: 16.3 µM (active)
